Entries after “also recorded” stand apart in the source; their conditions may differ.
Key:
ICR mice = assay: Light-dark box; assay type: in vivo
[1] = Detection of Compound A in brain extract; conditions: 2 hours after i.p. injection, LC-MS/MS
[2] = Gastrointestinal hemorrhage; conditions: in vivo
[3] = molecular target: T1, COX-2 in stimulated RAW 264.7 macrophages (Mus musculus, UniProt Q05769); assay: RAW 264.7 macrophage inhibition assay (Compound A); assay type: cell-based
T1 construct: endogenous in cells; host or cells: RAW 264.7 macrophages stimulated with LPS (and GM-CSF / interferon γ where described)
T1 sequence (Q05769 18-604): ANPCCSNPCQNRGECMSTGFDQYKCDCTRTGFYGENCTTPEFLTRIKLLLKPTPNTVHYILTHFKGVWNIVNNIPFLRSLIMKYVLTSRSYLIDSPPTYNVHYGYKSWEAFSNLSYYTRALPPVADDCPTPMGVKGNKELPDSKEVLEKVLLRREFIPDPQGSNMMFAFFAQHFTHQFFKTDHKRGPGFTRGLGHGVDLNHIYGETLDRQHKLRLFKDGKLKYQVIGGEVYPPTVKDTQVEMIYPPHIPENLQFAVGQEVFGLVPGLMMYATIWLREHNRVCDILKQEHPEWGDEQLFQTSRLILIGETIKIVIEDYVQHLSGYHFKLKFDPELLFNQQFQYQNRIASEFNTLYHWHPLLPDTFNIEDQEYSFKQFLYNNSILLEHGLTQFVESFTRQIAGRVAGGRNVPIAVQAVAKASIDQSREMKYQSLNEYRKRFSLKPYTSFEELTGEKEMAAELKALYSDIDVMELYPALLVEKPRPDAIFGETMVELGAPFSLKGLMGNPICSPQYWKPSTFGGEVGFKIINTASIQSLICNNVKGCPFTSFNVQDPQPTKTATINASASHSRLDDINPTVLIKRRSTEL

Human DAGLα = molecular target: T2, Human DAGLα (Homo sapiens, UniProt Q9Y4D2); assay: DAGLα activity (Compound A); assay type: biochemical; conditions: in vitro
T2 construct: made in house; host or cells: HEK293T cells (transfected, pcDNA3.1D); membranes used
T2 sequence (Q9Y4D2 1-1042): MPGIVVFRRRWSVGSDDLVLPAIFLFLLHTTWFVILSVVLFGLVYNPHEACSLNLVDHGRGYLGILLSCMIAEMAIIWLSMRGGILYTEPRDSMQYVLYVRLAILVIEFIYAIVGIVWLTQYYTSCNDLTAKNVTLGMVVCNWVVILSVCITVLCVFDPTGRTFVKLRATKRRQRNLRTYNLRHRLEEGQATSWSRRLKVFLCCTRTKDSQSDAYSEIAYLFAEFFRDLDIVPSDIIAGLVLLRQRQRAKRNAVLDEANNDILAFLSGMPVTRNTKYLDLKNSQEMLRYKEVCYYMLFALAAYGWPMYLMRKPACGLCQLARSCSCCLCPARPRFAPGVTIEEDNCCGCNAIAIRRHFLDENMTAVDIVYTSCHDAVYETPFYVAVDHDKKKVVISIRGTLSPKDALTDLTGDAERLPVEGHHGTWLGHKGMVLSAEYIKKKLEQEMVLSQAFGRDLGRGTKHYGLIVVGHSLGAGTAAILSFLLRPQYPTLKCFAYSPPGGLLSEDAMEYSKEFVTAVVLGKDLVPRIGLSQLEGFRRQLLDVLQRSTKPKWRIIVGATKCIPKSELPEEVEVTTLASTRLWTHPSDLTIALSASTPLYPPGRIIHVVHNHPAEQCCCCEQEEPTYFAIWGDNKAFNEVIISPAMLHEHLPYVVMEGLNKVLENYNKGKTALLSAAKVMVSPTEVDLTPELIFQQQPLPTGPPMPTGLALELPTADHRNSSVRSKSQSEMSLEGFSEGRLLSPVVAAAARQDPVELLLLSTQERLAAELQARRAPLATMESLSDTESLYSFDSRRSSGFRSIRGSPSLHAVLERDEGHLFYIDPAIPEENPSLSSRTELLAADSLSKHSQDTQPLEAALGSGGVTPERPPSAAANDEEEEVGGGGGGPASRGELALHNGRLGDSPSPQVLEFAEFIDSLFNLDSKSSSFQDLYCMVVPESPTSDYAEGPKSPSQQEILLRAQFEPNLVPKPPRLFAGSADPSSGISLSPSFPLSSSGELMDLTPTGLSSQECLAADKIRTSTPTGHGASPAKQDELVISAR

[4] = system: peripheral tissue eCB, NAE, MAG and PG levels; assay: Peripheral tissue NAE, MAG and PG levels after i.p. injection; assay type: in vivo, mice
Experimental: Mice were sacrificed by cervical dislocation and decapitation. The brain, lungs, liver, stomach, small intestines, and kidneys were then rapidly removed and frozen on a metal block in dry ice. The tissue was then placed in a tube and stored at −80° C. until extraction, usually one day after harvesting. For PG and eCB analysis, lipid extraction from tissue was carried out as described in Patel et al., 2009.
Analytes were quantified using LC-MS/MS on a Quantum triple-quadrupole mass spectrometer in positive-ion mode using selected reaction monitoring. Detection of eicosanoids was performed as described in Kingsley & Marnett, 2007. For fatty acid analysis the mobile phases used were 80 μM AgOAc with 0.1% (v/v) acetic acid in H2O (solvent A) and 120 μM AgOAc with 0.1% (v/v) acetic acid in MeOH (solvent B). The analytes were eluted using a gradient from 20% A to 99% B over 5 minutes. The transitions used were m/z 300→282 for PEA, m/z 328→310 for SEA, m/z 434→416 for OEA, m/z 456→438 for AEA, m/z 464→446 for AEA-d8, m/z 331→257 for 2-PG, m/z 359→285 for 2-SG, m/z 463→389 for 2-OG, m/z 485→411 for 2-AG, m/z 493→419 for 2-AG-d8, m/z 519→409 for AA, and m/z 527→417 for AA-d8. Peak areas for the analytes were normalized to the appropriate internal standard and then normalized to tissue mass for in vivo samples. […]

[5] = lipopolysaccharide-activated RAW 264.7 macrophages
[6] = stimulated RAW 264.7 macrophages
[7] = 10 mg/kg, two hours after injection

Question: For `COc1ccc2c(c1)c(CC(=O)N1CCOCC1)c(C)n2C(=O)c1ccc(Cl)cc1` [Compound A, 2-[1-(4-Chloro-benzoyl)-5-methoxy-2-methyl-1H-indol-3-yl]-1-morpholin-4-yl-ethanone], which Light-zone time (ICR mice; 10 mg/kg) is on record?
Answer: Its Light-zone time is “significantly increased”.

Question: And the “Number of light-zone entries” value (ICR mice; 10 mg/kg)?
Answer: Its value is “significantly increased”.

Question: And the “Overall locomotor activity in the light-dark box” value (ICR mice; 10 mg/kg)?
Answer: Its value is “without significantly affecting”.

Question: And the “Anxiolytic effects in the light-dark box with Rimonabant” value (ICR mice; Rimonabant 3 mg/kg)?
Answer: The value was “blocked”.

Question: What about the “Indomethacin in brain extract after Compound A treatment” value [1] of the same molecule?
Answer: The value was “not detected”.

Question: And the “Presence of compound in brain” value [1]?
Answer: The value was “present in the brain”.

Question: What about the Gastrointestinal hemorrhage [2] of the same molecule?
Answer: The Gastrointestinal hemorrhage was “not to cause gastrointestinal hemorrhage”.

Question: What about the “Inhibition of AA oxygenation in cells” value [3, 5] of the same molecule?
Answer: The value was “without inhibiting AA oxygenation”.

Question: What about the “Inhibition of eCB oxygenation by COX-2 in cells” value [3, 5] of the same molecule?
Answer: Its value is “effective at inhibiting eCB oxygenation”.

Question: And the 2-AG levels [3, 6]?
Answer: Its 2-AG levels is “increasing; also recorded: concentration-dependently increased”.

Question: What about the AA levels [3, 6] of the same molecule?
Answer: The AA levels was “without increasing AA levels”.

Question: What about the 2-AG levels ([3]; stimulated RAW 264.7 macrophages, 3 μM (p=0.007)) of the same molecule?
Answer: Its 2-AG levels is “significantly increased”.

Question: What about the “Inhibition of DAGLα” value (Human DAGLα) of the same molecule?
Answer: Its value is “did not inhibit”.

Question: What about the “AEA levels in the kidney” value [4, 7] of the same molecule?
Answer: The value was “significantly increased”.

Question: And the “AEA levels in the lung” value [4, 7]?
Answer: Its value is “significantly increased”.

Question: And the “AEA levels in the small intestine” value [4, 7]?
Answer: The value was “significantly increased”.

Question: And the “AEA levels in the stomach” value [4, 7]?
Answer: The value was “significantly increased”.

Question: And the “Liver NAE levels” value ([4]; liver)?
Answer: Its value is “did not affect”.

Question: What about the “2-AG or any other MAG in any tissue” value ([4]; peripheral tissues, 10 mg/kg) of the same molecule?
Answer: The value was “no effect”.

Question: What about the “Levels of any other NAE in any tissue” value ([4]; peripheral tissues, 10 mg/kg) of the same molecule?
Answer: The value was “did not affect”.

Question: What about the “PG levels in peripheral tissues” value ([4]; stomach, heart, kidney, lung, intestine) of the same molecule?
Answer: The value was “no effect”.

— patent publication US20150183737A1, “COMPOSITIONS AND METHODS FOR SUBSTRATE-SELECTIVE INHIBITION OF ENDOCANNABINOID OXYGENATION” (Vanderbilt University, priority 2012, published 2015)
